Patent US4816490A, “Novel therapeutic use of a derivative of indane dione and the pharmaceutical compositions intended for this use” (priority 1987, dated 1989)

Columns and labels:
[1] = tested on: hyperlipidaemia / atheroma in Wistar rats on atheromatogenous regimen; experiment: Biochemical testings in rats on atheromatogenous (cholesterol-rich) diet, including atheroma risk ratios; assay type: in vivo, rat; details: 100 mg/kg; for Cholesterol in LDL, variation in comparison to controls-Diet: LDL (estimate)
Text: (§1) The method utilized for the test was that, slightly altered of Aubert D. Feraud J. C., Lacaze B., Pepino., Ponak E. et Podesta M. as described in Atherosclerosis, Vol. 20 (1974), p. 263-280 (Experimental Atherogenesis in the Wistar Rat).
(§2) Female rats of Wistar strain, free of specific pathogenic germs (EOPS) stemming from the breeding EVIC-CEBA
Mean body weight: 160-180 g at the start of the test
(§3) Diet: standard tablets UAE AO 3 enriched in cholesterol (0.5%) and in cholic acid (0.5).
15 animals per each batch and by cage in MACROLON (Safi) of 59 cm×38 cm, 5 cm filled with a litter of shavings of wood.
(§4) Diet of the animals: the animals were given the atheromatogenous regimen then while maintaining the same regimen, they were given for 4 days 250,000 IU/kg of vitamin D2 dissolved in olive oil (Sterogyl 15H). The compounds to be tested were given thereafter for 4 weeks immediately after the termination of the atheromatogenous regimen.
At the end of these studies the following tests were performed on all surviving animals.
Esterified blood cholesterol
Cholesterol in LDL (estimate)
The total score for each product was obtained by adding each individual scores and allowed the following classification
The protection against the atheromatogenous risk was evaluated using the following ratios: […]

[2] = tested on: atheroma / hyperlipidaemia in Wistar rats on atheromatogenous regimen; experiment: Overall hypolipaemiant and anti-atheromatous classification (summarized scores); assay type: in vivo, rat; details: 100 mg/kg
Text: as §1, §2, §3, §4

[3] = tested on: atheromatous damages of the aorta, Wistar rats; experiment: Histopathological examination of atheroma in rats on atheromatogenous diet; assay type: in vivo, rat; details: 100 mg/kg
Text: as §1, §3
The aorta, livers, hearts of the rats after sacrifice were […] with an aqueous solution of Bouin's Reagent and embedded in paraffin after washing with alcohols at increasing concentration and with toluene. The hearts were kept in blocks of paraffin for a further examination when necessary. The livers were stained using the technique of Hematein-eosin and the aorta were stained using the techniques of
orcein-light green to evidence the structural damages of the elastic strips
periodic acid, then Schiff's Reagent to locate the deposits of mucopolysaccharids […]
The intensity of the observed damages and the degree of atheromatosis were determined using one of the following scores: […]
The histopathological examinations provided individual scores which were analyzed, then reported for each batch. Three parameters were distinctly determined: […]
2. The intensity of the atheromatous damages found, determined by the previously-given scores.
3. The number of the observed atheromatous damage calculated on the basis of a batch of 15 animals each.

[4] = Acute toxicity after single intraperitoneal administration; assay type: in vivo; details: mouse, in vivo, ip, calculated LD 50 (about)
Text: (§5) Male and female mice of Swiss strain weighing from 22 to 25 g of body weight were free of pathogen specific organisms (EOPS), stemming from breeding CERJ (53860 LE GENEST (France) and acclimated for at least 8 days in the animalry of the firm.
(§6) Except where stipulated to the contrary, in the tables giving the results, 10 animals of the same sex for each dose were housed in cages of MAKROLON (Safi) of 40 cm by 25 cm filled with shaving of wood. Standard feeding for rats and mice, tablets UAR and tap water ad libitum.
(§7) The compounds were administered without previous fasting either orally (gastric tubing using a metallic oesophageous sonde) at a rate of 0.5 ml or 1 ml per 20 g of body weight of an aqueous suspension of the test compound in a 3% solution of arabic gum, or intraperitoneally at a rate of 0.5 ml or 1 ml per 20 g of body weight of the test compound suspended in an isotonic saline solution containing 3% of arabic gum.
(§8) For 6 days after the single administration and then every day for 15 days.
(§9) When necessary, the mean lethal doses (LD 50) were calculated by the method of Behrens and Karber (BK) and Miller and Tainter (MT). The latter allowing to supply with, for the threshold of probability P=0.05 a limit of confidence for the LD 50. Further calculated were the LDo i.e. DMT=maximal doses always tolerated and the LD100 i.e. DMM=minimal doses always lethal.

[5] = tested on: female rats of Wistar strain; experiment: Tolerance, mortality and body weight in the rat atheroma study
Text: as §2, §4
The behavior and the changes in weight of the animals were surveyed every day as well as by weekly weighing.

[6] = Maximal tolerated dose on chronic administration in the rat; details: in vivo
[7] = Acute toxicity after single oral administration; assay type: in vivo; details: mouse, in vivo, po
Text: as §5, §6, §7, §8, §9
The compound was administered in a single dose to batches of 10 male or female mice weighing […] at a rate of 1 ml per 20 g of body weight.

[8] = tested on: atheromatous deposits of the aorta, Wistar rats; experiment: Macroscopic examination of aorta atheroma in rats on atheromatogenous diet; assay type: in vivo, rat; details: 100 mg/kg
Text: as §1, §3
After the studies, all the animals were sacrificed by subtotal puncture of the blood in the abdominal aorta after anesthesia by intravenous sodium Pentobarbital. The hearts, livers, aortas on which the score of atheroma was determined were taken. For this purpose, the aortas were longitudinally cut, then spread to allow a whole insight of the endothelial coating from the aortic valves until the branching of the coeliac stem (lower portion of the thoracic aorta).
Aorta was from an anatomic point of view divided into two parts:
Zone 1: aortic valves-first intercostal arters
Zone 2: first intercostal arters and branching of the coeliac stem
The intensity of the atheromatous deposits was determined according to the following scores:
Score 1: Discrete (<1 mm) and few deposit
Score 2: Numerous and discrete deposits
Score 3: Numerous and marked deposits (<1 mm)
Score 4: Very marked deposits or very numerous deposits but letting some uninfiltrated areas
Score 5: Deposits on the whole epithelium
Two parameters were considered:
the intensity of the observed damages determined according to the previously-given scores.

[9] = tested on: hyperlipidaemia induced by TRITON WR 1339; experiment: Hyperlipidaemia induced by TRITON WR 1339 in the Wistar rat; assay type: in vivo; details: for Dose dependence of hypolipaemiant activity: 250 and 500 mg/kg
Method: Feeding by standard Regimen UAR A04
Drinking water ad libitum
6 animals per dose in a cage in MAKROLON of 60×40 cm filled with shavings of wood.
10 mn after: administration of the test compound
6 hours after: 1st sampling of the blood at the retro-orbital sinus
Total cholesterol by the colorimetric method of RICHMOND
Cholesterol in HDL by the colorimetric method of RICHMOND after precipitation by CONCANAVALIN A
Cholesterol in LDL by the colorimetric method of RICHMOND after precipitation by CONCANAVALIN A
Total lipids by the Zollner's sulphophosphovanillic method
Triglycerids by the BUCOLO's enzymatic method.

CCOC(=O)C(C)(C)Oc1ccc(Cl)cc1 [Clofibrate]
Cholesterol in LDL / Cholesterol in HDL ratio (risk of atheroma) [1]: 5.35
Cholesterol in LDL / Cholesterol in HDL, % in comparison with Controls-Diet [1]: -78.13%
Total Blood Cholesterol / Cholesterol in HDL ratio (risk of atheroma) [1]: 6.69
Total Blood Cholesterol / Cholesterol in HDL, % in comparison with Controls-Diet [1]: -74.91%
Cholesterol in HDL, variation in comparison to controls-Diet ([1]; 4 weeks): +104.17%
Esterified cholesterol, variation in comparison to controls-Diet ([1]; 4 weeks): -55.00%
Total Blood lipids, variation in comparison to controls-Diet ([1]; 4 weeks): -35.43%
Total blood cholesterol, variation in comparison to controls-Diet ([1]; 4 weeks): -48.75%
Triglycerids, variation in comparison to controls-Diet ([1]; 4 weeks): -24.14%
Cholesterol in LDL, variation in comparison to controls-Diet ([1]; 4 weeks): -55.37%
Classification of the anti-atheromatous action [2]: Compound of the invention>Fenofibrate>Clofibrate
Histological examination score [3]: 2.00
LD50 [4]: ~1800 mg/kg
Mortality ([5]; rat, in vivo): 4/15
MTD [6]: ~100 mg/kg
LD50 [7]: 2500 mg/kg
Macroscopical examination total score [8]: 2.00
Damaged animals, % of decrease in comparison with Controls-Diet ([8]; macroscopical): -18.18%
Damaged animals, percentage ([8]; macroscopical): 81.82%
Damaged animals, score in relation to Clofibrate ([8]; macroscopical): 1.00
Intensity of the damages, % of decrease in comparison with Controls-Diet ([8]; macroscopical): -25.65%
Intensity of the damages, score in relation to Clofibrate ([8]; macroscopical): 1.00

CC(C)OC(=O)C(C)(C)Oc1ccc(C(=O)c2ccc(Cl)cc2)cc1 [Fenclofibrate]
Atheromatous risk total score [1]: 0.23
Cholesterol in LDL / Cholesterol in HDL, % in comparison with Controls-Diet [1]: -12.35%
Cholesterol in LDL / Cholesterol in HDL, score in comparison with Clofibrate [1]: 0.16
Total Blood Cholesterol / Cholesterol in HDL, % in comparison with Controls-Diet [1]: -5.06%
Total Blood Cholesterol / Cholesterol in HDL, score in comparison with Clofibrate (=1) [1]: 0.07
Cholesterol in HDL score (Clofibrate=1) ([1]; 4 weeks): 0.04
Cholesterol in HDL, variation in comparison to controls-Diet ([1]; 4 weeks): +4.17%
Cholesterol in LDL score (Clofibrate=1) ([1]; 4 weeks): 0.16
Esterified cholesterol score (Clofibrate=1) ([1]; 4 weeks): 0.40
Esterified cholesterol, variation in comparison to controls-Diet ([1]; 4 weeks): -22.08%
Total Blood lipids score (Clofibrate=1) ([1]; 4 weeks): 0.29
Total Blood lipids, variation in comparison to controls-Diet ([1]; 4 weeks): -10.31%
Total blood cholesterol score (Clofibrate=1) ([1]; 4 weeks): 0.02
Total blood cholesterol, variation in comparison to controls-Diet ([1]; 4 weeks): -1.09%
Triglycerids, variation in comparison to controls-Diet ([1]; 4 weeks): -25.86%
Cholesterol in LDL, variation in comparison to controls-Diet ([1]; 4 weeks): -8.69%
Biochemistry total score ([1]; sum of individual scores, Clofibrate=1 each): 1.98
Classification of the anti-atheromatous action [2]: Compound of the invention>Fenofibrate>Clofibrate
Total Score (biochemistry, atheromatous risk, macroscopical, histological) [2]: 6.51
Histological examination score [3]: 2.13
Mortality ([5]; 100 mg/kg, 4 weeks, atheromatogenous regimen (batch No. 2: 2/15)): 3/15
Macroscopical examination total score [8]: 2.17
Damaged animals, % of decrease in comparison with Controls-Diet ([8]; macroscopical): -16.67%
Damaged animals, percentage ([8]; macroscopical): 83.33%
Damaged animals, score in relation to Clofibrate ([8]; macroscopical): 0.92
Intensity of the damages, % of decrease in comparison with Controls-Diet ([8]; macroscopical): -31.97%
Intensity of the damages, score in relation to Clofibrate ([8]; macroscopical): 1.25
Intensity of the damages, quotation ([8]; macroscopical, scores 0 to 5): 1.83

CC(C)OC(=O)C(C)(C)Oc1ccc(C(=O)c2ccc(Cl)cc2)cc1 [Procetofene, reference compound]
Dose dependence of hypolipaemiant activity ([9]; 6 hours after TRITON WR 1339): directly proportional to the doses
Dose dependence of hypolipaemiant activity ([9]; 24 hours after TRITON WR 1339): inversely proportional to the dose
Cholesterol HDL/LDL score vs 250 mg/kg Procetofene ([9]; 6 hours after, 250 mg/kg oral): 1.00
Total Score vs 250 mg/kg Procetofene ([9]; 6 hours after, 250 mg/kg oral): 4.00
Total cholesterol score vs 250 mg/kg Procetofene ([9]; 6 hours after, 250 mg/kg oral): 1.00
Total lipids score vs 250 mg/kg Procetofene ([9]; 6 hours after, 250 mg/kg oral): 1.00
Triglycerids score vs 250 mg/kg Procetofene ([9]; 6 hours after, 250 mg/kg oral): 1.00
Cholesterol HDL/LDL score vs 250 mg/kg Procetofene ([9]; 6 hours after, 500 mg/kg oral): 1.53
Total Score vs 250 mg/kg Procetofene ([9]; 6 hours after, 500 mg/kg oral): 5.12
Total cholesterol score vs 250 mg/kg Procetofene ([9]; 6 hours after, 500 mg/kg oral): 1.65
Total lipids score vs 250 mg/kg Procetofene ([9]; 6 hours after, 500 mg/kg oral): 0.65
Triglycerids score vs 250 mg/kg Procetofene ([9]; 6 hours after, 500 mg/kg oral): 1.29
Cholesterol HDL/LDL score vs 250 mg/kg Procetofene ([9]; 24 hours after, 250 mg/kg oral): 1.00
Total Score vs 250 mg/kg Procetofene ([9]; 24 hours after, 250 mg/kg oral): 4.00
Total cholesterol score vs 250 mg/kg Procetofene ([9]; 24 hours after, 250 mg/kg oral): 1.00
Total lipids score vs 250 mg/kg Procetofene ([9]; 24 hours after, 250 mg/kg oral): 1.00
Triglycerids score vs 250 mg/kg Procetofene ([9]; 24 hours after, 250 mg/kg oral): 1.00
Cholesterol HDL/LDL score vs 250 mg/kg Procetofene ([9]; 24 hours after, 500 mg/kg oral): 0.30
Total Score vs 250 mg/kg Procetofene ([9]; 24 hours after, 500 mg/kg oral): 3.33
Total lipids score vs 250 mg/kg Procetofene ([9]; 24 hours after, 500 mg/kg oral): 0.85
Triglycerids score vs 250 mg/kg Procetofene ([9]; 24 hours after, 500 mg/kg oral): 1.01
Antihyperlipaemiant activity, compound vs Procetofene ([9]; same doses (250 and 500 mg/kg)): antihyperlipaemiant activity about equal
